Patent publication US9408891B2, “Methods of using gelsolin to treat or prevent bacterial sepsis” (priority 2003, dated 2016)
Entries after “also recorded” stand apart in the source; their conditions may differ. Ends that are not written are not given here. * marks the point of attachment. RhodamineB = CCN(CC)c1ccc2c(-c3ccccc3C(=O)*)c3ccc(=[N+](CC)CC)cc-3oc2c1

Key:
gelsolin = gelsolin (Homo sapiens, UniProt P06396); test: Actin severing activity of gelsolin (50 nM) with LTA or lysolipids; type: biochemical; conditions: for inhibition of gelsolin by lysolipids: lipid below 1 μM
gelsolin, sequence (P06396 28-782): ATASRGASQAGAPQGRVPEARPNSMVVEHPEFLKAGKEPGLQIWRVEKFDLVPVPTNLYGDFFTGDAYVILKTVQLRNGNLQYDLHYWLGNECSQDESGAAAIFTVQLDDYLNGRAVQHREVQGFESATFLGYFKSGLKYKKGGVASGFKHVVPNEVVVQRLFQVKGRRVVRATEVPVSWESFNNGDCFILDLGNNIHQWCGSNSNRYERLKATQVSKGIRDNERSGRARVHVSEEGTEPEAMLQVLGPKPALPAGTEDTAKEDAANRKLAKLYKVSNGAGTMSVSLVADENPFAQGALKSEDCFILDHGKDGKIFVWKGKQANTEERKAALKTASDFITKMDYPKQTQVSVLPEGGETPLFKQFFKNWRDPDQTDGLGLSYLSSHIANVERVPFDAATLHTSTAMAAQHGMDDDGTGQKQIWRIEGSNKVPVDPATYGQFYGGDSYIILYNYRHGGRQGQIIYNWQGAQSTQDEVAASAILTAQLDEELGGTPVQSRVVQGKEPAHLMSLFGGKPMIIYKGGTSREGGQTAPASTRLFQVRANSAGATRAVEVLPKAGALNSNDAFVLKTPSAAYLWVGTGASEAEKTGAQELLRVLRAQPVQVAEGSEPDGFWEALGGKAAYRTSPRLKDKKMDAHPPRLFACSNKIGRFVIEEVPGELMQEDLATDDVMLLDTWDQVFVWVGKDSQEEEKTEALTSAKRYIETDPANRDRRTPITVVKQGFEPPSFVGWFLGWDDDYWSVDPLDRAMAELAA
Protocol: (§1) The tested gelsolin concentration was 50 nM; LTA ranged from 0-50 μM; Pyrene-F-actin was 0.3 μM. Recording changes in fluorescently-labeled (rhodamine B-labeled) gelsolin peptide PBP10 (10 μM), indicates a specific interaction between gelsolin and LTA.

[1] = target: T1, recombinant human gelsolin (rhGLS) (Homo sapiens, UniProt P06396); test: Actin filament severing activity of purified gelsolin (pyrene F-actin depolymerization); type: biochemical; conditions: molar basis comparison
T1 construct: purchased Biogen IDEC, Inc., Cambridge, Mass; host or cells: E. coli
T1 sequence (P06396 28-782): as above
Protocol: To determine gelsolin's severing activity, rates of fluorescence decrease were evaluated during depolymerization. Monomeric G-actin was prepared from an acetone powder of rabbit skeletal muscle according to previously published methods (Spudich et al., J. Biol. Chem […]). The non-polymerizing solution contained 2 mM TRIS, 0.2 mM CaCl2, 0.5 mM ATP (adenosine triphosphate), 0.2 mM DTT (dithiothreitol) pH 7.4. Actin was polymerized by adding 150 mM KCl and 2 mM MgCl2 to the G-actin solutions and incubating for 1 hour at room temperature.
For F-actin severing assays, in general, a small volume (typically 5 μl) of the gelsolin composition is added to a similar volume of pyrene-labeled F-actin at a concentration adjusted to provide an actin:gelsolin ratio of approximately 10:1 (typically 1 μM gelsolin and 10 μM actin). This mixture is the diluted to 0.5 μM in a larger volume of F-actin buffer, and the filament severing efficiency is calculated from the initial slope of the fluorescence change. This reflects the rate of depolymerization that, in turn, is proportional to the number of cuts made by gelsolin. The LPS/gelsolin reaction can be done under any ionic condition, and the addition to F-actin requires the presence of […] Ca^2+ to activate the gelsolin. […] The actin nucleation reaction is similar except that in the latter case, the gelsolin/LPS mixture is added to a more dilute solution of G-actin (typically, 1 or 2 μM) in low ionic strength buffer followed immediately by addition of 150 mM KCI and 2 mM MgCl2 to initiate polymerization.
(§2) As shown, recombinant human gelsolin (rhGLS) (FIG. 4A) and blood serum (FIG. 4B) severing activity was measured in 0.4 μM pyrene-labeled F-actin samples (polymerized with 50% pyrene-labeled G-actin), after adding gelsolin (16 nM)/serum (2.5 μl), or their combination with one of the following: LPS (from different species), PIP2 (phosphatidyl-inositol-4,5-bisphosphate), LPA (lysophosphatidic acid), lipid A (the LPS derivative lacking polysaccharide) or PS (phosphatidylserine). The fluorescence intensity of F-pyrene actin was then monitored for 10 minutes, and the severing activity was calculated based on decreasing fluorescence. Severing activity was determined from a decrease in rate of fluorescence during depolymerization, and the depolymerization rate was calculated from the slope of the early decrease in fluorescence.

[2] = target: T1, recombinant human gelsolin (rhGLS); test: Change of gelsolin OD at 280 nm after adding lipids; type: binding; conditions: OD 280 nm
Protocol: (§3) Therefore, to determine changes of gelsolin OD at 280 nm, different amounts of LPS, LPA and PS were added to recombinant human gelsolin (rhGLS) solutions and OD emission spectra were recorded using spectrophotometer Genesys 6 (Thermo-Spectronic, USA).

[3] = target: T2, gelsolin activity in whole human serum (Homo sapiens, UniProt P06396); test: Actin filament severing activity of whole human serum; type: biochemical; conditions: larger amounts needed than with pure gelsolin
T2 construct: from tissue; host or cells: whole human serum (2.5 µl)
T2 sequence (P06396 28-782): as above
Protocol: as §2

[4] = target: T3, PBP10 (PIP2-binding site of gelsolin) (Homo sapiens, UniProt P06396); test: Rhodamine-B fluorescence change of gelsolin peptide PBP10 after adding lipids; conditions: for fluorescence quenching / change of rhodamine-B peptide: 2 μM peptide, buffer A pH 7.0, 15 min
T3 construct: made in house; host or cells: solid phase peptide synthesis
Protocol: as §3
Interaction of LPS and gelsolin was examined using rhodamine B- and pyrene-labeled SEQ ID No:1 (QRLFQVKGRR). The effect of LPS on gelsolin was determined in terms of the rhodamine-B fluorescent changes of PBP10 peptide in the presence of different lipids (FIG. 1C); and the fluorescence emission spectra of pyrene-labeled SEQ ID No:1 (2 μM) in the presence of LPS from Escherichia coli (1.2 μM), PIP2 (0.82 μM) and LPA (0.82 μM) (FIG. 1D) The results using the pyrene-derivatized gelsolin peptide confirmed the LPS induced clustering of the peptide with resulting excimer fluorescence of the pyrene group, which was evident as a large increase in fluorescence emission at 480 nm.
as §1

[5] = Solid phase binding of 3H-LPS to peptide-coated wells; parameters: species or system Salmonella minnesota; conditions: for binding of 3H-LPS to peptide-coated surfaces: solid phase, wells coated with peptide
Protocol: To provide chemical and functional evidence that gelsolin binds LPS through its lipid-binding domain, a solid phase assay was conducted in which radiolabeled LPS was added to wells coated with different amounts of rhodamine-B-labeled-SEQ ID No:1 (rhodamine-B-QRLFQVKGRR, derived from the PIP2-binding site of gelsolin and termed “PBP10”), or to a truncated peptide (rhodamine-B-QRL), in the absence or presence of unlabeled LPS, respectively.
Tritium-labeling of LPS was done by a modification of the procedure of Watson and Riblet (Watson et al., J. Immunol 114:1462-8 (1975)). A sample (2 mg) of LPS from Salmonella minnesota Re595 (Sigma Chemical Co., St. Louis, Mo.) was oxidized (150 minutes, 20° C.) with sodium periodate (3×10^−2 M). After destruction of the oxidant with 1.0 M ethylene glycol, aldehyde groups were reduced (18 hours at 4° C.) with an ice-cold solution of NaB [^3H]4 (0.46 GBq, 481 GBq/mmole, wherein GBq refers to a unit of radioactivity) (Amersham-Pharmacia Biotech, Buckinghamshire, England) in 200 μl of ice-cold borate buffer (0.05 M, pH 9.5). Excess sodium borohydride was destroyed with 5 μl of acetic acid. After two washings (centrifugation at 100,000×g for 15 minutes) in 400 μl of an ice-cold water-ethanol mixture (1:1 by vol.), the radiolabeled [^3H]-LPS (9×10^5 cpm/μg; 2×10^3 cpm/pmole) was stored at −20° C. until used.
To measure [^3H] labeled-LPS-binding, polystyrene ELISA-type microplates (96 wells) were coated with PBP10 or rhodamine-B-QRL (RhB-QRL) by incubation for 18 hours at 4° C. with a solution (100 μl, 500 pmole/well) in saline. After three washings with 100 μl saline, the wells were then incubated at room temperature with [^3H]-LPS (360,000 c.p.m.), in the presence or absence of unlabeled LPS (20 μg/well), in a binding medium (100 μl) containing bovine serum albumin (50 μg) in saline. After 3 hours of incubation, the plates were washed three times with 100 μl saline washes, and the remaining bound radioactivity was measured.

human platelets = test: Collagen-induced aggregation of gel-filtered platelets; type: cell-based
Protocol: To isolate human platelets, blood from healthy volunteers was collected in acid-citrate dextrose. Platelet-rich plasma obtained after centrifugation (15 minutes, 110×g) at room temperature, was supplemented with apyrase (0.5 U/ml) (Sigma-Aldrich) to degrade excess nucleotides. Platelets were sedimented by centrifugation (10 minutes, 1000×g), suspended in buffer A (139 mM NaCl, 2.8 mM KCl, 0.8 mM MgCl2, 0.8 mM KH2PO4, 8.9 mM NaHCO3, 10 mM HEPES, 5.6 mM glucose, 0.3% albumin, pH 7.35) and filtered on a 50 ml column of Sepharose 2B to obtain gel-filtered platelets (GFP).
Platelet aggregation was initiated by adding collagen (10 μg/ml) (Chrono-Log Corp., Havertown, Pa.). Platelet aggregation was monitored using a Chronolog Lumi-Aggregometer (Chrono-Log Corp.). Changes in light transmission were recorded for 10 minutes, using a PowerLab/200 instrument and MacLab Chart program Version 3.2. When required before activation, the platelet suspension was reacted with LPS, or LPS-preincubated with the SEQ ID No:1 peptide (QRLFQVKGRR).

[6] = Neutron scattering of LPS with gelsolin peptide; type: physicochemical; conditions: preliminary neutron scattering
Source text: The molecular structure of LPS and its complexes with proteins can be measured at nm resolution by X-ray and neutron scattering, as well as by electron and atomic force microscopy.
At present, the calculated diameter (36 nm) is greater than that which has been previously reported for pure LPS micelles, and the difference in size may reflect another structural feature. In additional experiments with more variations in gelsolin/LPS or peptide, LPS ratios will reveal if there are significant changes in LPS particle structure when these peptides bind LPS.

[7] = test system: human neutrophils / human aortic endothelial cells (HAEC); test: Neutrophil adhesion to LTA-stimulated HAEC; type: cell-based; conditions: LTA 10 μg/ml
Source text: To investigate whether gelsolin can prevent gram-positive bacterial inflammation, the effect of LTA-mediated activation of human neutrophils was examined. Neutrophils were selected because their adhesion to human aorta endothelial cells (HAEC) is a hallmark of inflammation.
Neutrophils were isolated from human blood using the endotoxin-free Lympholyte-poly kit (Cedarlane, Ontario, Canada). The isolated neutrophil cells were resuspended in RPMI media. […] To quantify the adhesion, the neutrophils were labeled with calcein-AM (5 μM for 30 minutes at 37° C.).

[8] = test system: NF-κB translocation in rat primary astrocytes; test: NF-κB translocation to the nucleus in astrocytes; type: cell-based; conditions: astrocytes, 2 hour; LPS 2 μM or TNF-α 10 ng/ml
Protocol: Rat primary astrocytes were obtained from prenatal rats and maintained for 14 days in culture before use. Embryos (E17-E19) were removed by caesarian section from a Sprague-Dawley rat and the hippocampi were surgically removed. The tissue was digested in trypsin/DNAse at 37° C., centrifuged (1000×5 min) and filtered to derive suspensions from each pup. Cells were grown in an incubator at 37° C. and 5% CO2 in DMEM (Dulbecco's Modified Eagle's Medium; BioWhittaker/Cambrex BioScience, East Rutherford, N.J.), supplemented with Ham's F12 (Sigma-Aldrich, St. Louis, Mo.) and 5% fetal bovine serum (FBS) (Hyclone, Logan, Utah) for 7 days, followed by an additional 7 days in Neurobasal medium (Gibco, Grand Island, N.Y.) also supplemented with 5% FBS, 2 mM l-glutamine, 50 μg/ml streptomycin and 50 U/ml penicillin. In each experiment, the medium was changed to serum-free at 6-12 hours prior to addition of LPS, TNF-α, or gelsolin.
HAECs and astrocytes cultures were incubated for 10 minutes in medium containing 10 μg/ml LPS alone, or LPS that had been pre-incubated with 0.16 mg/ml of human gelsolin. Cultures were fixed with ice-cold methanol and immunostained for F-actin with fluorescein isothiocyanate (FITC)-labeled phalloidin (Molecular Probes, Eugene, Oreg.). In astrocyte cultures, NF-κB translocation was manipulated by a 2 hour incubation in serum-free medium containing one of the following: 10 ng/ml TNF-α, 10 μg/ml LPS alone, or LPS that had been preincubated with 0.16 mg/ml human gelsolin. Location of transcription factor nuclear factor-kappaB (NF-κB) was observed using a monoclonal antibody to NF-κB (Molecular Probes), and cell nuclei were detected by counter-staining with 4′, 6-diamidino-2-phenylindole dihydrochloride (DAPI) (Sigma).

Question: Which “inhibition of gelsolin by lysolipids” value (gelsolin) does the source give for platelet activating factor [PAF] here?
Answer: The value was “do not inhibit gelsolin”.

Question: For Lipid A, which “inhibitory effect on severing activity of purified gelsolin” value [1] is on record?
Answer: Its value is “weaker but still significant inhibitory effect; also recorded: weaker, but detectable inhibition; also recorded: weaker, but still significant inhibitory effect”.

Question: What does the source list for lysophosphatidic acid [LPA]?
Answer: inhibitory effect on severing activity of purified gelsolin [1]: strongly inhibited; effect on absorbance of gelsolin [2]: diminished the absorbance of gelsolin; inhibition of gelsolin activity in whole human serum [3]: much less effective in serum than in pure solution; also recorded: appeared to lack its effect in serum

Question: For rhodamine-B-QRL, which “fluorescence quenching / change of rhodamine-B peptide” value [4] is on record?
Answer: Its value is “no fluorescence change”.

Question: And the “binding of 3H-LPS to peptide-coated surfaces” value [5]?
Answer: Its value is “did not bind LPS”.

Question: For “phosphatidylinositol-4,5-bisphosphate [PIP2]”, which “inhibition of gelsolin activity in whole human serum” value [3] is on record?
Answer: The value was “able to inhibit gelsolin activity”.

Question: And the “fluorescence quenching / change of rhodamine-B peptide” value [4]?
Answer: Its value is “induced identical concentration-dependent fluorescence quenching”.

Question: With “QRLFQVKGRR (peptide fragment of gelsolin) [gelsolin SEQ ID No:1, Gelsolin residues 160-169 peptide]” as the compound, how does the “reversal of LPS inhibition of collagen-induced platelet activation” value (human platelets; peptide added to LPS before addition to platelets, collagen 10 μg/ml) read?
Answer: The value was “restored, in a peptide concentration-dependent manner”.

Question: What about the “effect of peptide alone on collagen-mediated platelet functions” value (human platelets; without LPS) of the same compound?
Answer: Its value is “had no effect on collagen-mediated platelet functions”.

Question: What about the “effect of peptide on calculated diameter of LPS” value [6] of the same compound?
Answer: The value was “small, but significant increase in calculated diameter of LPS”.

Question: With `CCCCCCCCCCCCC/C=C/[C@@H](O)[C@@H](N)COP(=O)(O)OCC[N+](C)(C)C` [SPC, Sphingosylphosphocholine] as the compound, how does the “inhibition of gelsolin by lysolipids” value (gelsolin) read?
Answer: The value was “at least as strongly as lysophosphatidic acid (LPA); also recorded: also inhibit gelsolin”.

Question: For lipoteichoic acid [LTA], which “binding to PBP10 judged by changes in PBP10 fluorescence” value ([4]; PBP10 10 μM) is on record?
Answer: The value was “approximately the same avidity as PIP2; also recorded: approximately the same efficiency as PIP2; also recorded: binds to the PIP2-binding site within the PBP10 peptide”.

Question: What about the “stimulation of neutrophil binding to the endothelial surface” value [7] of the same compound?
Answer: The value was “stimulated binding of calcein AM-labeled neutrophils”.

Question: What about the “inhibition of gelsolin's actin severing activity” value (gelsolin; LTA 0-50 μM, pyrene-F-actin 0.3 μM) of the same compound?
Answer: Its value is “nearly as well as LPS does; also recorded: potent inhibitor”.

Question: With “rhodamine-B-QRLFQVKGRR (RhodamineB-QRLFQVKGRR) [PBP10]” as the compound, how does the “reduction of 3H-LPS binding by excess unlabeled LPS” value ([5]; 5-fold excess of unlabeled LPS) read?
Answer: Its value is “approximately 50%”.

Question: What about the “binding of 3H-LPS to peptide-coated surfaces” value [5] of the same compound?
Answer: The value was “saturably bound; also recorded: bound in a saturable manner”.

Question: What about the “inhibition of labeled LPS binding in the presence of excess LPS” value ([5]; unlabeled LPS 20 μg/well) of the same compound?
Answer: Its value is “substantial inhibition”.

Question: For TNF-α, which “induction of NF-κB translocation to the nucleus” value [8] is on record?
Answer: The value was “caused NF-κB translocation to the nucleoplasm”.
